# Source: patent US7615377B2, “Fluorescein-based metal sensors” (Massachusetts Institute of Technology, priority 2003, dated 2009)
# Like-named read-outs stand apart in the source and are kept apart here.
# Legend:
# [1] = Fluorescence response of sensor to Hg^2+ (fluorescence spectroscopy, integrated emission); assay type: binding
# Method: General Spectroscopic Procedures. Ultrol grade PIPES (piperazine-N,N′-bis(2-ethanesulfonic acid) from Calbiochem, KCl (99.997%) and anhydrous HgCl2 (99.998%) were purchased and used as received. Millipore filtered water was used to prepare all aqueous solutions. With the exception of the pKa determination, all spectroscopic measurements were conducted at neutral pH with 50 mM PIPES, 100 mM KCl buffer adjusted to pH 7. An Orion glass electrode, calibrated prior to use, was employed to record solution pH. Mercury solutions were prepared from 10 mM stock solutions of HgCl2. Stock solutions of MS1 (1 mM in DMSO) was prepared, stored at −4° C., and thawed in the dark immediately prior to use. After addition of this stock solution to aqueous buffers, the resulting solution contained 0.1% DMSO for fluorescence and 1% DMSO for absorption measurements. The KaleidaGraph software package was used to manipulate all spectral data.
# Fluorescence Spectroscopy. Emission spectra were obtained with a Hitachi F-3010 spectrofluorimeter linked to a Pentium PC running the SpectraCalc software package. A rhodamine quantum counter was used to normalize the spectra for excitation intensity, and manufacturer-supplied correction curves were used to normalize the emission spectra. Manufacturer supplied photomultiplier curves were used to correct for emission intensity. A circulating water bath was used during all experiments to regulate the temperature at 25.0° C.±0.1° C. Spectra were obtained with 3 nm slit widths and either a 240 nm/min or 600 nm/min scan speed. All measurements were conducted at least in triplicate.
# [2] = Quantum yield and extinction coefficient measurements (reference fluorescein in 0.1 N NaOH); assay type: physicochemical
# Text: Quantum yield, Φ, may be obtained by comparison of the integrated area of the corrected emission spectrum of the sample with that of a reference solution. A preferred reference solution is a solution of fluorescein in 0.1 N NaOH, quantum efficiency 0.95. The concentration of the reference is adjusted to match the absorbance, Abs, of the test sample. The quantum yields may be calculated using the following equation: […]
# Optical Absorption Spectroscopy. UV-visible spectra were obtained by using either a Cary IE scanning spectrophotometer or a Hewlet Packard diode array spectrophotometer. Both instruments were controlled by Pentium PCs and were run using the manufacturer supplied software packages. A circulating water bath was used during acquisition to maintain the temperature at 25.0° C.±1.0° C. Samples were contained in 1-cm path length quartz cuvettes (3.5 mL volume). All manipulations were performed at least three times.
# Quantum Yield Measurements. The quantum yield of MS1 was determined by comparison to fluorescein in 0.1 N NaOH (φ=0.95) as a reference. In a typical experiment, a 6 mL solution of ˜1 μM MS1 was prepared. For metal-free studies, 10 μL of 100 mM K4EDTA was added to chelate any adventitious metal ions. To determine the quantum efficiencies of the metal-bound dye, 10 μL of a 10 mM HgCl2 solution was added to a 1 μM MS1 solution. The concentration of the reference solution was adjusted such that Amax (490 nm) equaled Amax of MS1 (505 nm) or Amax of the Hg^2+ complex (501 nm), and the excitation wavelength was chosen as the wavelength determined from where the reference and probe excitation spectra intersect. Excitation was at 497 nm for MS1 and at 496 nm for the Hg^2+ complex. Emission spectra were integrated from 510-650 nm and the quantum yields were calculated standard methods.
# [3] = Selectivity of mercury-induced fluorescence in the presence of other metal ions; assay type: binding; settings: for fluorescence increase upon addition of Hg^2+: 1 μM probe, excitation 500 nm
# Method: Selectivity of Mercury-Induced Fluorescence in the Presence of Other Metal Ions. The selectivity of MS1 for Hg^2+ against a background of various alkali, alkaline earth, transition metal ions, and Zn(II), Cd(II) or Pb(II) was investigated by using fluorescence spectroscopy. Aqueous metal ion solutions of Li(I), Na(I), Rb(I), Mg(II), Ca(II), Sr(II), Ba(II), Mn(II), Co(II), Ni(II), Cd(II), and Hg^2+ were prepared from the chloride salts. The Cu(II) solution was prepared from copper sulfate and the Pb(II) was prepared from lead nitrate. A solution of Cr(III) was prepared from chromium acetate and stored at pH 1. Solutions of Fe(II) were prepared immediately before use with ferrous ammonium sulfate and water that was thoroughly purged with Ar. All stock solutions were ˜10 mM, with the exception of 100 mM NaCl. In a typical experiment, the emission spectrum of the free dye was recorded. A 20 μL aliquot of a ˜10 mM metal solution was then added to a 1 μM solution of MS1 (3 mL, for a concentration of metal ion at about 1 to about 50 ppm, depending on the molecular weight of the metal ion tested) and the emission spectrum was recorded with excitation at 500 nm. Subsequently, a 20 μL portion of 10 mM HgCl2 was added and the emission spectrum was obtained. The spectra were integrated from 510-650 nm and normalized with respect to the free dye.
# [4] = Determination of protonation constants (fluorescence dependence on pH); assay type: physicochemical; settings: 10 mM KOH, 1 μM probe; for pKa, formation of a non-fluorescent isomer / pKa, protonation of the tertiary amine: 100 mM KCl, pH ~12 to ~3; for pKa: aqueous solution of 100 mM KCl
# Method: Determination of Protonation Constants. The pKa values for MS1 affect fluorescence were determined by plotting the integrated emission intensity versus pH from ˜12 to ˜4. In a typical experiment, a 30 mL solution of 1 μM MS1 in 100 mM KCl, 10 mM KOH was prepared (pH ˜12). Aliquots of 6 N, 2 N, 1 N, 0.5 N, and 0.5 N HCl were added to achieve pH changes of approximately […], and the emission spectrum was recorded after each addition. […] Upon excitation at 500 nm, the emission spectra were integrated over the range 510 nm to 650 nm, normalized and plotted against pH. The data were fit to the non-linear expression previously described.
# [5] = Reversibility of Hg^2+ binding upon addition of TPEN
# [6] = Water solubility of the probe; assay type: physicochemical
# [7] = pH 7, metal-free, at absorption maximum (497 nm sensor 1; 505 nm MS1)
# [8] = pH 7, with Hg^2+, at absorption maximum (500 nm sensor 1; 501 nm MS1)
compound,measurement,setting,value
CCSCCSCCN(CCSCCSCC)Cc1ccccc1NCc1c(O)ccc2c(-c3ccccc3C(=O)O)c3cc(Cl)c(=O)cc-3oc12 [sensor 6],fluorescence change upon Hg^2+ coordination,[1],fluorescence decrease
O=C(O)c1ccccc1-c1c2cc(Cl)c(=O)cc-2oc2c(CN(CCS)Cc3ccccn3)c(O)ccc12 [sensor 1],"quantum yield, free sensor","[2]; pH 7, metal-free",0.27
same,"extinction coefficient (epsilon), free sensor",[2]; [7],"61,600 M^−1 cm^−1"
same,"quantum yield, Hg^2+-bound","[2]; pH 7, with Hg^2+",0.27
same,"extinction coefficient (epsilon), Hg^2+-bound",[2]; [8],"69,000 M^−1 cm^−1"
same,"quantum yield, free sensor","[2]; pH 11, metal-free",0.07
same,"extinction coefficient (epsilon), free sensor","[2]; pH 11, metal-free, 504 nm","60,800 M^−1 cm^−1"
same,"quantum yield, Hg^2+-bound","[2]; pH 11, with Hg^2+",0.24
same,"extinction coefficient (epsilon), Hg^2+-bound","[2]; pH 11, with Hg^2+, 507 nm","78,300 M^−1 cm^−1"
same,selectivity of fluorescence increase for Hg^2+ over other cations,[3]; pH 7,selective for Hg^2+
same,fluorescence increase upon addition of Hg^2+,"[3]; pH 7 (50 mM PIPES, 100 mM KCl)",1.5 fold
same,fluorescence increase upon addition of Hg^2+,"[3]; pH 7 (50 mM PIPES, 100 mM KCl), listed as Sensor 1",~2.5 fold
same,selectivity of fluorescence increase for Hg^2+ over other cations,[3]; pH 11,selective for Hg^2+
same,fluorescence increase upon addition of Hg^2+,"[3]; pH 11 (50 mM CABS, 100 mM KCl)",5 fold
same,"pKa, formation of a non-fluorescent isomer",[4],4.6
same,"pKa, protonation of the tertiary amine",[4],8.2
same,increase in integrated emission upon addition of Hg^2+,"[1]; pH 11 (50 mM CABS, 100 mM KCl), 0-3 equivalents Hg^2+, excitation 504 nm",~6 fold
"CCSCCN(CCSCC)Cc1ccccc1NCc1c(O)ccc2c(-c3ccccc3C(=O)O)c3cc(Cl)c(=O)cc-3oc12 [sensor 3, 2-{5-[(2-{[Bis-(2-ethylsulfanyl-ethyl)-amino]-methyl}-phenylamino)-methyl]-2-chloro-6-hydroxy-3-oxo-3H-xanthen-9-yl}-benzoic acid]","absorption maximum, free sensor",[2]; pH 7,505 nm
same,increase in brightness upon Hg^2+ binding,[2]; pH 7,~3.3 fold
same,increase in quantum yield upon Hg^2+ coordination,[2]; pH 7,~2.75 fold
same,"emission maximum, free sensor","[2]; pH 7, 50 mM PIPES, 100 mM KCl, EDTA present",524 nm
same,"quantum yield, free sensor","[2]; pH 7, metal-free",0.04
same,"extinction coefficient (epsilon), free sensor",[2]; [7],"61,400 M^−1 cm^−1"
same,"extinction coefficient (epsilon), free sensor","[2]; pH 7, metal-free, at absorption maximum (497 nm sensor 1; 505 nm MS1), listed as MS1","61,300 M^−1 cm^−1"
same,"absorption maximum, Hg^2+-bound","[2]; pH 7, with Hg^2+",501 nm
same,"emission maximum, Hg^2+-bound","[2]; pH 7, with Hg^2+",528 nm
same,"quantum yield, Hg^2+-bound","[2]; pH 7, with Hg^2+",0.11
same,"extinction coefficient (epsilon), Hg^2+-bound",[2]; [8],"73,200 M^−1 cm^−1"
same,Hg response in a background of alkali and alkaline earth metals,"[3]; Li(I), Na(I), Rb(I), Mg(II), Ca(II), Sr(II), Ba(II)",unaffected
same,"effect of Zn(II), Cd(II), Cr(III), Pb(II) on fluorescence response to Hg^2+","[3]; Zn(II), Cd(II), Cr(III), Pb(II) background",do not inhibit
same,interference of first-row transition metal ions with Hg^2+-induced fluorescence increase,[3]; first-row transition metal ions,only Cu(II) interferes
same,selectivity of fluorescence increase for Hg^2+ over other cations,[3]; pH 7,selective for Hg^2+
same,pKa,"[4]; pH ~12 to ~3, read-out: pKa, formation of a non-fluorescent isomer",4.8
same,pKa,"[4]; pH ~12 to ~3, read-out: pKa, protonation of the aniline nitrogen atom",7.1
same,EC50,"[1]; 500 nM probe, pH 7, read-out: EC50 (concentration of Hg^2+ required to achieve 50% of maximum fluorescence)",410 nM
same,increase in integrated emission upon addition of Hg^2+,"[1]; pH 7 (50 mM PIPES, 100 mM KCl)",~7 fold
same,increase in integrated emission upon addition of Hg^2+,"[1]; pH 7 (50 mM PIPES, 100 mM KCl), listed as MS1",~5 fold
same,reversibility of Hg^2+ binding,[5],reversibly
same,"normalized integrated emission versus cycle number, Hg^2+/TPEN cycles","[5]; 1 μM sensor, 1 equiv Hg^2+ and 1 equiv TPEN alternately, excitation 500 nm","restoration and decrease of fluorescence upon addition of 1 equiv Hg^2+ and 1 equiv TPEN, respectively, over the course of five cycles"
same,"fluorescence after TPEN addition, distance from the background value",[5]; 1 equivalent TPEN added to stoichiometric mixture of sensor and Hg^2+,≤ 20%
same,water solubility,[6],water-soluble
CC(C)(S)CN(Cc1ccccn1)Cc1c(O)ccc2c(-c3ccccc3C(=O)O)c3cc(Cl)c(=O)cc-3oc12 [sensor 2],selectivity of fluorescence increase for Hg^2+ over other cations,[3]; pH 7,selective for Hg^2+
same,fluorescence increase upon addition of Hg^2+,"[3]; pH 7 (50 mM PIPES, 100 mM KCl)",1.5 fold
same,selectivity of fluorescence increase for Hg^2+ over other cations,[3]; pH 11,selective for Hg^2+
same,fluorescence increase upon addition of Hg^2+,"[3]; pH 11 (50 mM CABS, 100 mM KCl)",6 fold
same,"pKa, formation of a non-fluorescent isomer",[4],4.7
same,"pKa, protonation of the tertiary amine",[4],8.0
O=C(O)c1ccccc1-c1c2cc(Cl)c(=O)cc-2oc2c(CNc3ccccc3CN(CCS)Cc3ccccn3)c(O)ccc12 [sensor 4],fluorescence response upon addition of Hg^2+,"[1]; crude reaction mixture from the synthesis, in the presence of chloride ion",positive fluorescence response
CCSCCN(CCSCC)Cc1c2oc3c(CN(CCSCC)CCSCC)c(O)c(Cl)cc3c(-c3ccccc3C(=O)O)c-2cc(Cl)c1=O [sensor 7],fluorescence change upon Hg^2+ coordination,[1],fluorescence decrease
